Measured values from patent US20190119504A1 (Dow Global Technologies LLC, priority 2016, published 2019).

Columns and labels:
Chlorella sp. ATCC 7516 = experiment: Algal efficacy testing of dry paint film, modified ASTM 5589; type: cell-based
Description: (§1) These paints were then diluted with a biocide free acrylic/silicone based paint and mixed to prepare targeted concentrations of biocide combinations for the testing. The total biocides concentrations obtained were 125, 250, 500, 1000, 2000 and 5000 ppm. After biocides addition or dilution, the paints were mixed 90 seconds with the horse power shaker (AXEL 75M3372/Agitateur SO-10MI) until uniformity was achieved. […] After one day, the paints were applied to Schleicher & Schuell filter paper at 280 μm wet film thickness and dried for 3 days at room temperature avoiding direct exposure to sunlight. […] This sample size allowed for an agar border when the sample disc was placed into the well of the test plate.
Algal efficacy was tested according to modified ASTM 5589 which is a standard accelerated test method for determining resistance of various coatings (including paints) to algal defacement. To accommodate for high-throughput screening, this method was scaled down from petri plates to 6-well plates. Bold Modified Basal Freshwater Nutrient Solution was used as growth medium for the algal culture and Bold's agar was used for the efficacy testing. A single coupon was placed with a pair of sterile forceps at the center of the agar plug (on top) with the painted surface facing upwards. The algal inoculum was prepared by diluting an exponentially growing culture of Chlorella sp. to 1×10^6 cfu/ml.
Each well that contains a tested coupon was inoculated with 1750 μl of algal suspension (1×10^6 cfu/ml) making sure that the whole surface (paint film as well as the agar surrounding it) was evenly covered. The plates were incubated at room temp (21° C.-25° C.) with cyclic exposure to 14 hours fluorescent light followed by 10 hours darkness, for a period of three weeks.
(§2) The SI is calculated based on F. C. Kull et.
SI=Qa/QA+Qb/QB • Qa=the concentration of Antimicrobial A in the blend • QA=the concentration of Antimicrobial A as the only biocide • Qb=the concentration of Antimicrobial B in the blend • QB=the concentration of Antimicrobial B as the only antimicrobial […]

[1] = tested on: Aspergillus niger DSMZ 1957; experiment: Fungal efficacy testing of dry paint film, modified ASTM 5590; type: cell-based; settings: A. niger 1957, three weeks
Description: as §1
ASTM 5590 is a standard accelerated test method for determining resistance of various coatings (including paints) to fungal defacement. To accommodate for high-throughput screening, this method was scaled down from petri plates to 6-well plates. […] A single coupon was placed with a pair of sterile forceps at the center of the agar plug (on top) with the painted surface facing upwards.
as §2
SI=Qa/QA+Qb/QB • Qa=the concentration of Antimicrobial A in the blend • QA=the concentration of Antimicrobial A as the only biocide • Qb=the concentration of Antimicrobial B in the blend • QB=the concentration of Antimicrobial B as the only antimicrobial
SI value of <1 in the formula indicates a synergism of the blended biocides exists.

Compound | inhibition at 5000 ppm (Chlorella sp. ATCC 7516; 504 h, total conc 5000 ppm, three weeks, color intensity vs blank) [%] | Total conc, ppm (concentration used as minimum inhibitory concentration for SI; pass level 75% inhibition) (Chlorella sp. ATCC 7516; total active ingredient in liquid paint, dry film, three weeks) [ppm] | Total conc, ppm (concentration used as minimum inhibitory concentration for SI; pass level 75% inhibition; where pass not reached, concentration tested) ([1]; total active ingredient in liquid paint, dry film) [ppm] | inhibition at 2000 ppm ([1]; Aspergillus niger, DSMZ1957, 504 h, total conc 2000 ppm, area covered, increments of 5%) [%] | inhibition at 1000 ppm (Chlorella sp. ATCC 7516; 504 h) [%] | inhibition at 10000 ppm ([1]; Aspergillus niger, DSMZ1957, 504 h, total conc 10000 ppm, area covered, increments of 5%) [%]
Cc1ccc(S(=O)(=O)C(I)I)cc1 [DIMTS, Diiodomethyl p-tolyl sulfone] | 95 | 5000 | 2000 | 95 |  | 
O=c1[nH]c2c(c(=O)n1C1CCCCC1)CCC2 [LENACIL, 3-Cyclohexyl-6,7-dihydro-1H-cyclopentapyrimidine-2,4-(3H,5H)-dione] |  |  |  |  | 90 | 0
